According to the NIST ThermoML archive (doi:10.1016/j.jct.2012.07.007):
Numbers after ± are expanded uncertainties.

Experiment: xn = mol fraction of the nth substance listed
Conditions: 101 kPa, Liquid; for mass density: Vibrating tube method; for speed of sound: Linear variable-path acoustic interferometer

Q: With Cc1ccncc1 [4-methylpyridine] + CCn1cc[n+](C)c1.F[B-](F)(F)F as the compound, how does the mass density (298.15 K, x2 = 0.5728) read?
A: 1203.15 ± 0.83 kg/m3

Q: And the mass density (298.15 K, x2 = 0.6218)?
A: 1217.12 ± 0.9 kg/m3

Q: And the mass density (298.15 K, x2 = 0.6731)?
A: 1230.36 ± 0.97 kg/m3

Q: What about the mass density (298.15 K, x2 = 0.7224) of the same compound?
A: 1241.78 ± 1 kg/m3

Q: And the mass density (298.15 K, x2 = 0.7743)?
A: 1252.28 ± 1.1 kg/m3

Q: And the mass density (298.15 K, x2 = 0.8203)?
A: 1260.27 ± 1.2 kg/m3

Q: And the mass density (298.15 K, x2 = 0.8717)?
A: 1267.85 ± 1.3 kg/m3

Q: What about the mass density (298.15 K, x2 = 0.9111) of the same compound?
A: 1272.56 ± 1.3 kg/m3

Q: What about the mass density (298.15 K, x2 = 0.9312) of the same compound?
A: 1274.64 ± 1.4 kg/m3

Q: And the speed of sound (303.15 K, x2 = 0.1211)?
A: 1448.9 ± 1.9 m/s

Q: And the speed of sound (303.15 K, x2 = 0.1734)?
A: 1464.5 ± 1.9 m/s

Q: And the speed of sound (303.15 K, x2 = 0.2215)?
A: 1478.1 ± 2 m/s

Q: What about the speed of sound (303.15 K, x2 = 0.2738) of the same compound?
A: 1492.3 ± 2 m/s

Q: And the speed of sound (303.15 K, x2 = 0.3226)?
A: 1505.1 ± 2 m/s

Q: And the speed of sound (303.15 K, x2 = 0.3709)?
A: 1517.3 ± 2.1 m/s

Q: And the speed of sound (303.15 K, x2 = 0.4215)?
A: 1529.7 ± 2.1 m/s

Q: And the speed of sound (303.15 K, x2 = 0.4721)?
A: 1541.8 ± 2.2 m/s

Q: And the speed of sound (303.15 K, x2 = 0.5207)?
A: 1553 ± 2.2 m/s

Q: What about the speed of sound (303.15 K, x2 = 0.5728) of the same compound?
A: 1564.2 ± 2.2 m/s

Q: What about the speed of sound (303.15 K, x2 = 0.6218) of the same compound?
A: 1574.8 ± 2.3 m/s

Q: What about the speed of sound (303.15 K, x2 = 0.6731) of the same compound?
A: 1585.1 ± 2.3 m/s

Q: What about the speed of sound (303.15 K, x2 = 0.7224) of the same compound?
A: 1594.6 ± 2.4 m/s

Q: What about the speed of sound (303.15 K, x2 = 0.7743) of the same compound?
A: 1602.4 ± 2.4 m/s

Q: What about the speed of sound (303.15 K, x2 = 0.8203) of the same compound?
A: 1608.5 ± 2.5 m/s

Q: And the speed of sound (303.15 K, x2 = 0.8717)?
A: 1612.2 ± 2.5 m/s

Q: What about the speed of sound (303.15 K, x2 = 0.9111) of the same compound?
A: 1613.3 ± 2.5 m/s

Q: And the speed of sound (303.15 K, x2 = 0.9312)?
A: 1613.3 ± 2.5 m/s

Q: What about the mass density (303.15 K, x2 = 0.1211) of the same compound?
A: 1012.54 ± 0.31 kg/m3

Q: And the mass density (303.15 K, x2 = 0.1734)?
A: 1039.26 ± 0.36 kg/m3

Q: What about the mass density (303.15 K, x2 = 0.2215) of the same compound?
A: 1062.71 ± 0.4 kg/m3

Q: What about the mass density (303.15 K, x2 = 0.2738) of the same compound?
A: 1086.94 ± 0.46 kg/m3

Q: What about the mass density (303.15 K, x2 = 0.3226) of the same compound?
A: 1108.38 ± 0.51 kg/m3

Q: What about the mass density (303.15 K, x2 = 0.3709) of the same compound?
A: 1128.45 ± 0.56 kg/m3

Q: And the mass density (303.15 K, x2 = 0.4215)?
A: 1148.31 ± 0.62 kg/m3

Q: And the mass density (303.15 K, x2 = 0.4721)?
A: 1166.92 ± 0.69 kg/m3

Q: What about the mass density (303.15 K, x2 = 0.5207) of the same compound?
A: 1183.59 ± 0.75 kg/m3

Q: What about the mass density (303.15 K, x2 = 0.5728) of the same compound?
A: 1200.15 ± 0.82 kg/m3

Q: What about the mass density (303.15 K, x2 = 0.6218) of the same compound?
A: 1214.3 ± 0.89 kg/m3

Q: And the mass density (303.15 K, x2 = 0.6731)?
A: 1227.81 ± 0.97 kg/m3

Q: And the mass density (303.15 K, x2 = 0.7224)?
A: 1239.32 ± 1 kg/m3

Q: What about the mass density (303.15 K, x2 = 0.7743) of the same compound?
A: 1249.84 ± 1.1 kg/m3

Q: And the mass density (303.15 K, x2 = 0.8203)?
A: 1257.85 ± 1.2 kg/m3

Q: And the mass density (303.15 K, x2 = 0.8717)?
A: 1265.24 ± 1.3 kg/m3

Q: And the mass density (303.15 K, x2 = 0.9111)?
A: 1269.8 ± 1.3 kg/m3

Q: What about the mass density (303.15 K, x2 = 0.9312) of the same compound?
A: 1271.69 ± 1.4 kg/m3

Q: And the speed of sound (308.15 K, x2 = 0.1211)?
A: 1428.2 ± 1.9 m/s

Q: And the speed of sound (308.15 K, x2 = 0.1734)?
A: 1443.7 ± 1.9 m/s

Q: What about the speed of sound (308.15 K, x2 = 0.2215) of the same compound?
A: 1457.6 ± 1.9 m/s

Q: And the speed of sound (308.15 K, x2 = 0.2738)?
A: 1472.9 ± 2 m/s

Q: And the speed of sound (308.15 K, x2 = 0.3226)?
A: 1486.3 ± 2 m/s

Q: And the speed of sound (308.15 K, x2 = 0.3709)?
A: 1499.9 ± 2.1 m/s

Q: And the speed of sound (308.15 K, x2 = 0.4215)?
A: 1514.7 ± 2.1 m/s

Q: And the speed of sound (308.15 K, x2 = 0.4721)?
A: 1528.9 ± 2.1 m/s

Q: What about the speed of sound (308.15 K, x2 = 0.5207) of the same compound?
A: 1542.6 ± 2.2 m/s

Q: What about the speed of sound (308.15 K, x2 = 0.5728) of the same compound?
A: 1557.1 ± 2.2 m/s

Q: And the speed of sound (308.15 K, x2 = 0.6218)?
A: 1570.3 ± 2.3 m/s

Q: What about the speed of sound (308.15 K, x2 = 0.6731) of the same compound?
A: 1582.7 ± 2.3 m/s

Q: What about the speed of sound (308.15 K, x2 = 0.7224) of the same compound?
A: 1593.7 ± 2.4 m/s

Q: And the speed of sound (308.15 K, x2 = 0.7743)?
A: 1603.4 ± 2.4 m/s

Q: And the speed of sound (308.15 K, x2 = 0.8203)?
A: 1609.8 ± 2.5 m/s

Q: What about the speed of sound (308.15 K, x2 = 0.8717) of the same compound?
A: 1612.8 ± 2.5 m/s

Q: And the speed of sound (308.15 K, x2 = 0.9111)?
A: 1611.5 ± 2.5 m/s

Q: What about the speed of sound (308.15 K, x2 = 0.9312) of the same compound?
A: 1609.7 ± 2.5 m/s

Q: And the mass density (308.15 K, x2 = 0.1211)?
A: 1008.4 ± 0.31 kg/m3

Q: And the mass density (308.15 K, x2 = 0.1734)?
A: 1035.43 ± 0.35 kg/m3

Q: What about the mass density (308.15 K, x2 = 0.2215) of the same compound?
A: 1059.13 ± 0.4 kg/m3

Q: And the mass density (308.15 K, x2 = 0.2738)?
A: 1083.63 ± 0.45 kg/m3

Q: What about the mass density (308.15 K, x2 = 0.3226) of the same compound?
A: 1105.18 ± 0.5 kg/m3

Q: What about the mass density (308.15 K, x2 = 0.3709) of the same compound?
A: 1125.39 ± 0.56 kg/m3

Q: What about the mass density (308.15 K, x2 = 0.4215) of the same compound?
A: 1145.11 ± 0.62 kg/m3

Q: What about the mass density (308.15 K, x2 = 0.4721) of the same compound?
A: 1163.65 ± 0.68 kg/m3

Q: What about the mass density (308.15 K, x2 = 0.5207) of the same compound?
A: 1180.05 ± 0.75 kg/m3

Q: What about the mass density (308.15 K, x2 = 0.5728) of the same compound?
A: 1196.14 ± 0.82 kg/m3

Q: What about the mass density (308.15 K, x2 = 0.6218) of the same compound?
A: 1209.95 ± 0.89 kg/m3

Q: And the mass density (308.15 K, x2 = 0.6731)?
A: 1222.97 ± 0.96 kg/m3

Q: What about the mass density (308.15 K, x2 = 0.7224) of the same compound?
A: 1234.16 ± 1 kg/m3

Q: What about the mass density (308.15 K, x2 = 0.7743) of the same compound?
A: 1244.37 ± 1.1 kg/m3

Q: And the mass density (308.15 K, x2 = 0.8203)?
A: 1252.23 ± 1.2 kg/m3

Q: What about the mass density (308.15 K, x2 = 0.8717) of the same compound?
A: 1259.65 ± 1.2 kg/m3

Q: And the mass density (308.15 K, x2 = 0.9111)?
A: 1264.37 ± 1.3 kg/m3

Q: What about the mass density (308.15 K, x2 = 0.9312) of the same compound?
A: 1266.47 ± 1.3 kg/m3
